What was measured:
Assay type in all cases: in vivo, rat
[1] = test system: Male Sprague-Dawley rats; assay: Hot water tail-flick test, morphine withdrawal-induced thermal hyperalgesia
Method: Male Sprague-Dawley rats (175-200 grams, Harlan, Indianapolis, Ind.) were divided into two groups (n=8 per group). Rats received subcutaneous injections of either saline or morphine (10 mg/kg; Sigma, St. Louis, Mo.) twice daily at 0800 to 0900 and 1600-1700 hour for 5 days in order to induce opioid tolerance. Chronic morphine withdrawal-induced hyperalgesia and allodynia were assessed in the animals 16 hours after the last injection of morphine. Following the recording of morphine withdrawal-induced hyperalgesia and allodynia, animals were treated with morphine (5 microgram) acutely via lumbar intrathecal injection to study the expression of morphine tolerance. Acute analgesic activity or intrathecal morphine in morphine-tolerant and chronic aline-treated rats were evaluated by mechanical (Analgesy-Meter) and thermal (tail-flick) test paradigms. Behaviors recorded prior to the acute administration of intrathecal morphine served as the basal latency measures.
With an understanding of the effects of morphine alone, separate groups of rats (n=8) received with saline or morphine (10 mg/kg subcutaneously, twice daily for 5 days) and also received once daily injections (at 1100 to 1200 hour) of propentofylline (1 and 10 micrograms) or saline via direct lumbar puncture during the induction of morphine tolerance. Again, chronic morphine withdrawal-induced hyperalgesia and allodynia were assessed in the animals 16 hours after the last subcutaneous morphine injection. Following the recording of morphine withdrawal-induced hyperalgesia and allodynia, animals were treated with morphine (5 micrograms) acutely via lumbar puncture to study the expression of morphine tolerance. As before, the acute analgesic activity of intrathecal morphine in morphine-tolerant and saline-injected rats was evaluated by mechanical (Analgesy-Meter) and thermal (tail-flick) test paradigms. Behavior recorded prior to the acute administration of intrathecal morphine served as the basal latency.
Thermal nociceptive thresholds were evaluated by the hot water tail-flick test that has been described previously (Bian, D. et al. 1999. Brain Res. 831:55-63). The test consisted of immersing the tail of the rats in water maintained at 49° C. and then recording the latency to a rapid flick. A 15 second cut-off time was used. Again, the total number of responses elicited during three successive trials separated by at least 10 minutes was recorded and then expressed as the % maximal possible effect. The tester was again blinded to the test groups.

[2] = test system: IL-1β mRNA; assay: RNase protection assay, cytokine mRNA at L5 lumbar spinal cord; conditions: propentofylline 10 micrograms intrathecally for 5 days during induction of morphine tolerance
Method: After behavioral testing for reactions to the combined treatment, rats were sacrificed and decapitated. An 18-gauge needle was inserted into the caudal end of the vertebral column and the spinal cord was expelled with ice-cold phosphate-buffered saline. The spinal cord was frozen immediately on dry ice and stored at −80° C. until homogenization. The L5 lumbar spinal cord was isolated from the intact frozen cord at the time of mRNA and protein quantification. Total RNA was isolated from the L5 spinal cord by the TRIzol extraction method (Invitrogen Corporation, Carlsbad, Calif).
Assessment of the temporal cytokine mRNA expression in the L5 lumber spinal cord was performed using a Ribonuclease Protection Assay technique. A Multiprobe RPAse kit was used (Pharmingen, San Diego, Calif.). Total RNA (15 μg) was hybridized to ^32P-labeled antisense RNA probes transcribed using the rat cytokine-1 (rCK-1) multiprobe template set resulting in double-stranded target RNA. After Rnase digestion, protected RNA and probe were resolved on a denaturing polyacrylamide gel and visualized by overnight autoradiography. Quantitative image analysis was employed to compare mRNA levels based on band intensities for each cytokine. The intensity of each band was measured using image analysis software and assigned an arbitrary unit based on the measured intensity levels. The value for the normalized quantity for each band was obtained by dividing by the L32 house-keeping gene control. Individual mRNA concentration was calculated as the ratio of the expression compared with saline-treated animals in which normal values were weighted as 1.

[3] = test system: GLT-1 mRNA; assay: Real time RT-PCR of ipsilateral lumbar spinal cord after L5 spinal nerve transection; conditions: daily intrathecal propentofylline 10 μg
Method: (§1) Experiments were performed to determine how propentofylline-induced suppression of glial activation contribute to reduced behavioral hypersensitivity after nerve injury. In a preventative paradigm, 10 μg of propentofylline (Sigma) to male Sprague-Dawley rats in 40 μl of sterile saline, or saline vehicle alone was administered intrathecally (i.t.) by lumbar puncture at the L4/5 level under brief halothane anesthesia (n=6-8/group). Treatment began one hour prior to L5 spinal nerve transection and continued daily in the evening until day 4 or 12 post-transection. Rats received either an L5 spinal nerve transection or sham surgery on day 0. The development of mechanical allodynia was monitored as described above in the morning at approximately 15 hours post-propentofylline or saline injection. Rats were euthanized on day 4 or 12 post-transection and tissue was further processed by real time RT-PCR, Western blot, or immunohistochemistry for determination of levels and rate of synthesis of the glutamate transporters GLT-1 and GLAST.
(§2) Tissue was collected from 4-5 rats/group on postoperative days 4 or 12. In order to obtain both mRNA and protein from the same tissue sample, the L5 region of the spinal cord (ipsilateral to the injury), was isolated and placed in PBS supplemented with protease inhibitor cocktail (1:1000, Sigma, St. Louis, Mo.) and RNase inhibitor (0.75 U/μL Ambion, Austin, Tex.). […]
(§3) Real time RT-PCR reactions were carried out in a total reaction volume of 25 uL containing a final concentration of 1.5 U Platinum Taq DNA polymerase (Invitrogen); 20 mM Tris HCl (pH 8.4); 50 mM KCl; 3 mM MgCl2; 200 uM dGTP, dCTP, and dATP; 400 uM dUTP and 1 U of UDG (uracyl DNA glycosylase); 900 nM of forward and reverse primers; 300 nM Taqman probe; and 5 uL of a 10-fold dilution of cDNA (50 ng) from the RT step. […] The iCycler Multicolor Real-Time PCR detection system (Bio-Rad) was used to quantify PCR product. The fluorescence and threshold values obtained were used to compare the relative amount of target mRNA in experimental groups to those of controls (Livak and Schmittgen 2001). […]

[4] = test system: GLAST mRNA; assay: as above; conditions: day 4; compared to L5 spinal nerve transection alone; did not attain statistical significance
Method: as §1, §2, §3

Question: Which results are given for CCCn1cnc2c1c(=O)n(CCCCC(C)=O)c(=O)n2C [propentofylline]?
Answer: Tail-flick latency ([1]; 16 hours after last injection, morphine 10 mg/kg s.c. twice daily 5 days and/or propentofylline 10 micrograms intrathecally once daily 5 days): 5.1 ± 0.3 s; morphine withdrawal-induced noxious thermal hyperalgesia ([1]; 16 hours after last morphine injection (10 mg/kg s.c. twice daily 5 days), propentofylline 1 and 10 micrograms intrathecally for 5 days during induction of tolerance): significantly attenuated; morphine-induced mRNA upregulation for IL-1β [2]: significantly attenuated; GLT-1 mRNA level ([3]; day 4 post-transection, vs sham-operated and L5 nerve transected rats): significantly increased; GLT-1 mRNA level ([3]; day 12 post-transection, vs L5 nerve transected rats): significantly increased; GLAST mRNA level [4]: slight decrease

— US7763626B2, “Compositions and method for enhancing the therapeutic activity of opiods in treatment of pain” (Trustees of Dartmouth College, priority 2004, dated 2010)
